Tests used:
KAT-6A = KAT-6A (Homo sapiens (Human), UniProt Q92794); test: KAT-6A biochemical inhibition assay (SAMDI mass spectrometry)
Method in brief: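 Enzyme (12.5 nM final) pre-incubated with serially diluted compounds (2% DMSO final) in 50 mM Tris pH 8.0 with Tween20, gelatin and 1 mM DTT. Reaction started with 1 μM peptide substrate and 1 μM acetyl-CoA, run 90 min at 25 °C, quenched with 0.5% formic acid, read by SAMDI-TOF mass spectrometry; IC50 derived.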

KAT-8 = KAT-8 (Homo sapiens (Human), UniProt Q9H7Z6); test: KAT-8 biochemical inhibition assay (SAMDI mass spectrometry)
Chain of KAT-8 (Q9H7Z6 other isoform, or with tags, fused parts or gaps): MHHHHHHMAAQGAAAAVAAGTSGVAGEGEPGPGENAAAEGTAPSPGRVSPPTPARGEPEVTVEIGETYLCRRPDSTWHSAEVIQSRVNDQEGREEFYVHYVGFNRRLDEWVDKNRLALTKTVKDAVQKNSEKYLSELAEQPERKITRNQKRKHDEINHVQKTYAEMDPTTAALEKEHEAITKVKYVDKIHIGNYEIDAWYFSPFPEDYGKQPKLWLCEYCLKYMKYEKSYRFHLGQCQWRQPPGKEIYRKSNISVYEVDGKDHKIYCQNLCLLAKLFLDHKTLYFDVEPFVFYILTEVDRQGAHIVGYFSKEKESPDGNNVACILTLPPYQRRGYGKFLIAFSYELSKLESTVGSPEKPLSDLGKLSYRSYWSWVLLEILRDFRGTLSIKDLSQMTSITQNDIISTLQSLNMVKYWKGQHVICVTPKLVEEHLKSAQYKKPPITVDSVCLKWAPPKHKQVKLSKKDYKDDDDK
Method in brief: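 Compounds in 2% DMSO pre-incubated with 12.5 nM enzyme in 50 mM Tris pH 8.0 with Tween20, gelatin and 1 mM DTT. Then 1 μM peptide and 5 μM acetyl-CoA were added, 90 min at 25 °C; formic acid stop and SAMDI-TOF mass spectrometry for IC50.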

KAT-7 = KAT-7 (Homo sapiens (Human), UniProt O95251); test: KAT-7 biochemical inhibition assay (SAMDI mass spectrometry)
Chain of KAT-7 (O95251 other isoform, or with tags, fused parts or gaps): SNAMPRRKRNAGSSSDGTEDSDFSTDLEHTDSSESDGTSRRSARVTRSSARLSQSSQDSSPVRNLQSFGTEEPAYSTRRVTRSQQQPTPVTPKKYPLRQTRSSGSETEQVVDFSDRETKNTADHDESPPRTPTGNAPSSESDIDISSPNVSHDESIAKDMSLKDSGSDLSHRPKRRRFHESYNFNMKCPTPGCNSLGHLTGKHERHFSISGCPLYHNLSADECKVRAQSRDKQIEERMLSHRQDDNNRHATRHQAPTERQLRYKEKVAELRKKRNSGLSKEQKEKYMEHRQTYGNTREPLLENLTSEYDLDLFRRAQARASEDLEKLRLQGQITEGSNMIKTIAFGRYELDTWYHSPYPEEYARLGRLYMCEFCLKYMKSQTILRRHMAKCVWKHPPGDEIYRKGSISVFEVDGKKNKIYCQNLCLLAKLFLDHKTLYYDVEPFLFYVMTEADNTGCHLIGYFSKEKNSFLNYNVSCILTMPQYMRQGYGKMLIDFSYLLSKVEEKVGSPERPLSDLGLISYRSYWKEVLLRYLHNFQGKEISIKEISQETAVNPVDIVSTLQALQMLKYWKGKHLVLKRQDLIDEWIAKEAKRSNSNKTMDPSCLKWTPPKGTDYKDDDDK
Method in brief: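 KAT-7 (6 nM) was pre-incubated with serially diluted compound (2% DMSO) in Tris pH 8.0 with DTT. Reaction with 1 μM peptide and 2 μM acetyl-CoA ran 120 min at 25 °C and was stopped with 0.5% formic acid. Acetylation was read by SAMDI-TOF mass spectrometry to give IC50.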

KAT-5 = KAT-5 (Homo sapiens (Human), UniProt Q92993); test: KAT-5 biochemical inhibition assay (SAMDI mass spectrometry)
Chain of KAT-5 (Q92993 other isoform, or with tags, fused parts or gaps): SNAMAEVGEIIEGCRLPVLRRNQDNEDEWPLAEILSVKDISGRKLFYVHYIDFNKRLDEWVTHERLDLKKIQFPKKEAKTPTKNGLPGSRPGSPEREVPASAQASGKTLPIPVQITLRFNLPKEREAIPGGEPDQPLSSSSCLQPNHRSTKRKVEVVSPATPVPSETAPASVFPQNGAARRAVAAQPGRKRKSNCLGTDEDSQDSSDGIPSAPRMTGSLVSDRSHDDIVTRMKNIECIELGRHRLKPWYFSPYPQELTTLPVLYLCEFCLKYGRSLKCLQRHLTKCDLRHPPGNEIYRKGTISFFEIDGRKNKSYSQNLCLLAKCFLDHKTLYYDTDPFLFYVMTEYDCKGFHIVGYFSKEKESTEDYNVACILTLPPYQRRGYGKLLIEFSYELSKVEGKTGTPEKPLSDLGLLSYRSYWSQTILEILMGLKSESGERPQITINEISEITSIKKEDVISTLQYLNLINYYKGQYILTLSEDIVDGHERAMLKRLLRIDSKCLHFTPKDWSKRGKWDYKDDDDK
Method in brief: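 KAT-5 at 9 nM final was preincubated with serially diluted compound (2% DMSO) in 50 mM Tris pH 8.0 with 1 mM DTT. Reaction ran with 1 μM peptide substrate and 0.5 μM acetyl-CoA for 90 min at 25° C, was quenched with 0.5% formic acid, and was read by SAMDI-TOF mass spectrometry.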

Chain of KAT-6A (Q92794 other isoform, or with tags, fused parts or gaps): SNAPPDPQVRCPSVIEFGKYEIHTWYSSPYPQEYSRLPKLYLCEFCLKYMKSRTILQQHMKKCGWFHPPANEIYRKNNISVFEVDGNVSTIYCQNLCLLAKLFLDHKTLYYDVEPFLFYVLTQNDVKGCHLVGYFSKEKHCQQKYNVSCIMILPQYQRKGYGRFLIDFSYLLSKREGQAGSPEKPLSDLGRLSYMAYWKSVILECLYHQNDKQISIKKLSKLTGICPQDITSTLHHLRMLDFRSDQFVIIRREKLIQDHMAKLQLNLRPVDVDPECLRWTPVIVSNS

| SMILES | IC50 (KAT-6A) [µM] | IC50 (KAT-8) [µM] | IC50 (KAT-7) [µM] | IC50 (KAT-5) [µM] |
| --- | --- | --- | --- | --- |
| O=C(NNS(=O)(=O)CC1CCCCC1)c1cc(-n2ccnc2)cc(Cl)c1F [Compound I-44] | > 100 | > 100 | > 100 | 50 to 100 |
| CC1CCN(C(=O)OC(C)(C)C)CC1CS(=O)(=O)NNC(=O)c1cc(-c2cn(C)cn2)cc(Cl)c1F (stereo not drawn) [Compound I-303] | 10 to 50 | 10 to 50 | < 10 | < 10 |
| CC(=O)Nc1ccc(S(=O)(=O)NNC(=O)c2cc(-c3cn(C)cn3)cc(Cl)c2F)cc1 [Compound I-379] | 10 to 50 | 10 to 50 | < 10 | 10 to 50 |
| COc1ccc(CN(C)C(=O)N[C@H]2C[C@H](CS(=O)(=O)NNC(=O)c3cc(-c4cn(C)cn4)cc(Cl)c3F)C2)cc1 [Compound I-175] | < 10 | 10 to 50 | < 10 | < 10 |
| CN(C(=O)OC(C)(C)C)c1ccc(S(=O)(=O)NNC(=O)c2cc(-c3cn(C)cn3)cc(Cl)c2F)cc1 [Compound I-377] | 10 to 50 | 10 to 50 | < 10 | 10 to 50 |
| CCCn1cc(-c2cc(C)c(F)c(C(=O)NNS(=O)(=O)C3CCCCC3)c2)cn1 [Compound I-151] | > 100 | > 100 | 10 to 50 | 50 to 100 |
| COCCn1cc(-c2cc(C)c(F)c(C(=O)NNS(=O)(=O)C3CCCCC3)c2)cn1 [Compound I-152] | > 100 | > 100 | > 100 | 10 to 50 |
| Cn1cnc(-c2cc(Cl)c(F)c(C(=O)NNS(=O)(=O)c3nccs3)c2)c1 [Compound I-227] | < 10 | 10 to 50 | < 10 | < 10 |
| Cn1cnc(-c2cc(Cl)c(F)c(C(=O)NNS(=O)(=O)c3ccc(Cl)cc3)c2)c1 [Compound I-323] | < 10 | 10 to 50 | < 10 | < 10 |
| CCNC(=O)N1CCC(C)C(CS(=O)(=O)NNC(=O)c2cc(-c3cn(C)cn3)cc(Cl)c2F)C1 (stereo not drawn) [Compound I-352] | 10 to 50 | 10 to 50 | < 10 | < 10 |
| Cc1nc(-c2cc(Cl)c(F)c(C(=O)NNS(=O)(=O)CC3CCOCC3)c2)cs1 [Compound I-70] | 10 to 50 | 10 to 50 | 10 to 50 | 10 to 50 |
| Cn1cnc(-c2cc(Cl)c(F)c(C(=O)NNS(=O)(=O)CC3CCCc4ccccc43)c2)c1 (stereo not drawn) [Compound I-264] | < 10 | 10 to 50 | < 10 | < 10 |
| Cc1cc(-c2cn(C)cn2)cc(C(=O)NNS(=O)(=O)C2CCOCC2)c1F [Compound I-131] | 10 to 50 | > 100 | < 10 | 10 to 50 |
| Cn1cnc(-c2cc(Cl)c(F)c(C(=O)NNS(=O)(=O)CC3(C)CCOCC3)c2)c1 [Compound I-239] | 10 to 50 | 10 to 50 | < 10 | < 10 |
| COc1ccc(CNC(=O)N[C@H]2C[C@H](CS(=O)(=O)NNC(=O)c3cc(-c4cn(C)cn4)cc(Cl)c3F)C2)cc1 [Compound I-174] | < 10 | 10 to 50 | < 10 | < 10 |
| Cn1cnc(-c2cc(Cl)c(F)c(C(=O)NNS(=O)(=O)c3cncs3)c2)c1 [Compound I-257] | 10 to 50 | 10 to 50 | 10 to 50 | 10 to 50 |
| Cc1ncc(-c2cc(Cl)c(F)c(C(=O)NNS(=O)(=O)CC3CCOCC3)c2)[nH]1 [Compound I-81] | < 10 | 10 to 50 | 10 to 50 | < 10 |
| COc1ccc(CNC(=O)NC2CCC(CS(=O)(=O)NNC(=O)c3cc(-c4cn(C)cn4)cc(Cl)c3F)C2)cc1 (stereo not drawn) [Compound I-327] | < 10 | 10 to 50 | < 10 | < 10 |
| Cc1cc(-c2cnn(C(C)C)c2)cc(C(=O)NNS(=O)(=O)C2CCCCC2)c1F [Compound I-155] | > 100 | > 100 | 10 to 50 | > 100 |
| CCn1cnc(-c2cc(Cl)c(F)c(C(=O)NNS(=O)(=O)CC3CCCCC3)c2)c1C [Compound I-28] | > 100 | > 100 | < 10 | 10 to 50 |
| Cc1cc(-c2cn(CCO)cn2)cc(C(=O)NNS(=O)(=O)CC2CCOCC2)c1F [Compound I-146] | 10 to 50 | > 100 | 10 to 50 | 10 to 50 |

The next lines start with the values.

| IC50 (KAT-6A) [µM] | IC50 (KAT-8) [µM] | IC50 (KAT-7) [µM] | IC50 (KAT-5) [µM] | SMILES |
| --- | --- | --- | --- | --- |
| < 10 | 10 to 50 | < 10 | < 10 | Cn1cnc(-c2cc(Cl)c(F)c(C(=O)NNS(=O)(=O)CC3CCCC(NC(=O)C4CCC4)C3)c2)c1 (stereo not drawn) [Compound I-218] |
| < 10 | 10 to 50 | < 10 | < 10 | CN(C(=O)C1CCC1)C1CCCC(CS(=O)(=O)NNC(=O)c2cc(-c3cn(C)cn3)cc(Cl)c2F)C1 (stereo not drawn) [Compound I-295] |
| 10 to 50 | 10 to 50 | < 10 | 10 to 50 | CNC(=O)N[C@H]1C[C@H](CS(=O)(=O)NNC(=O)c2cc(-c3cn(C)cn3)cc(Cl)c2F)C1 [Compound I-188] |
| < 10 | 10 to 50 | < 10 | 10 to 50 | Cn1cnc(-c2cc(Cl)c(F)c(C(=O)NNS(=O)(=O)C[C@H]3C[C@H](NC(N)=O)C3)c2)c1 [Compound I-207] |
| < 10 | 10 to 50 | < 10 | < 10 | Cn1cnc(-c2cc(Cl)c(F)c(C(=O)NNS(=O)(=O)CC3CCCC(NC(=O)OC(C)(C)C)C3)c2)c1 (stereo not drawn) [Compound I-102] |
| < 10 | 10 to 50 | < 10 | < 10 | Cn1cnc(-c2cc(Cl)c(F)c(C(=O)NNS(=O)(=O)C[C@H]3C[C@@H](NS(C)(=O)=O)C3)c2)c1 [Compound I-173] |
| < 10 | 10 to 50 | < 10 | < 10 | CC1CCC(CS(=O)(=O)NNC(=O)c2cc(-c3cn(C)cn3)cc(Cl)c2F)CC1 (stereo not drawn) [Compound I-313] |
| 10 to 50 | 10 to 50 | < 10 | 10 to 50 | CCC1CC(CS(=O)(=O)NNC(=O)c2cc(-c3cn(C)cn3)cc(Cl)c2F)CC1=O (stereo not drawn) [Compound I-255] |
| < 10 | 10 to 50 | < 10 | < 10 | COCC(=O)N1CCCC(CS(=O)(=O)NNC(=O)c2cc(-c3cn(C)cn3)cc(Cl)c2F)C1 (stereo not drawn) [Compound I-35] |
| < 10 | 10 to 50 | < 10 | < 10 | Cn1cnc(-c2cc(Cl)c(F)c(C(=O)NNS(=O)(=O)C[C@H]3CCOC3)c2)c1 [Compound I-371] |
| < 10 | 10 to 50 | < 10 | < 10 | Cn1cnc(-c2cc(Cl)c(F)c(C(=O)NNS(=O)(=O)C[C@H]3CC[C@H](NC(N)=O)CC3)c2)c1 [Compound I-194] |
| 10 to 50 | 10 to 50 | < 10 | 10 to 50 | Cn1cnc(-c2cc(Cl)c(F)c(C(=O)NNS(=O)(=O)CC3CCN(C(=O)CO)C3)c2)c1 (stereo not drawn) [Compound I-89] |
| 10 to 50 | 10 to 50 | < 10 | 10 to 50 | CN[C@H]1CC[C@H](CS(=O)(=O)NNC(=O)c2cc(-c3cn(C)cn3)cc(Cl)c2F)CC1 [Compound I-337] |
| 10 to 50 | 10 to 50 | < 10 | < 10 | CCO[C@@H]1CCC[C@H](CS(=O)(=O)NNC(=O)c2cc(-c3cn(C)cn3)cc(Cl)c2F)C1 [Compound I-356] |
| < 10 | 10 to 50 | < 10 | < 10 | Cn1cnc(-c2cc(Cl)c(F)c(C(=O)NNS(=O)(=O)C[C@H]3CCC[C@@H](NC(=O)OC(C)(C)C)C3)c2)c1 [Compound I-252] |
| 10 to 50 | 10 to 50 | < 10 | 10 to 50 | Cn1cnc(-c2cc(Cl)c(F)c(C(=O)NNS(=O)(=O)CC3CCC(N)C3)c2)c1 (stereo not drawn) [Compound I-339] |
| < 10 | 10 to 50 | < 10 | < 10 | Cn1cnc(-c2cc(Cl)c(F)c(C(=O)NNS(=O)(=O)CC3CCCN(C(N)=O)C3)c2)c1 (stereo not drawn) [Compound I-215] |
| < 10 | 10 to 50 | < 10 | < 10 | Cn1cnc(-c2cc(Cl)c(F)c(C(=O)NNS(=O)(=O)C[C@H]3CC[C@@H](NC(=O)C4CCC4)CC3)c2)c1 [Compound I-246] |
| 10 to 50 | 10 to 50 | < 10 | 10 to 50 | COCCC(=O)N1CCC(CS(=O)(=O)NNC(=O)c2cc(-c3cn(C)cn3)cc(Cl)c2F)C1 (stereo not drawn) [Compound I-56] |
| < 10 | 10 to 50 | < 10 | < 10 | CCC(=O)N(C)C1CCC(CS(=O)(=O)NNC(=O)c2cc(-c3cn(C)cn3)cc(Cl)c2F)CC1 (stereo not drawn) [Compound I-326] |
| 50 to 100 | > 100 | < 10 | 10 to 50 | Cn1cnc(-c2cc(Cl)c(F)c(C(=O)NNS(=O)(=O)CC3CCCNC3)c2)c1 (stereo not drawn) [Compound I-7] |

Reference: US11685732B2, “MYST family histone acetyltransferase inhibitors” (Epizyme, Inc., priority 2017, dated 2023)
